Data reported in patent US5707821A, “Identification of phospholipase A2 inhibitors in Aβ peptide-mediated neurodegenerative disease” (priority 1995, dated 1998).

Assays:
cPLA2 = conditions: Street et al. (1993); cited from earlier work
[1] = test system: TNF-α release by cultured human cortical microglia; assay: TNF-α release (ELISA) from Aβ1-40-stimulated human microglia; format: cell-based
Procedure: (§1) Cultures of human cortical or hippocampal astrocytes and microglia were prepared using a modification of the procedure described for cortical neurons. Cortical tissue from fetuses of 16 to 20 weeks of gestation was washed 3 times in Ca^2+ /Mg^2+ free Hanks balanced salt solution (CMF HBSS) and then dissociated by repeated pipetting. The solution was brought to a final volume of 80 ml CMF HBSS for approximately 10 ml of tissue. DNase (Sigma) was added to a final concentration of 0.05 mg/ml. 20 ml of the solution was passed through one 100 μm nylon cell strained (Falcon). The cells were then centrifuged for 5 minutes at 200×G in an IEC Clinical Centrifuge and resuspended in a trypsin/EDTA solution (0.05% trypsin+0.53 mM EDTA in HBSS; Gibco) and incubated for 20 minutes at 37°C. (10 ml of trypsin was added per 2-3 ml of tissue). The trypsin was then inactivated by adding (MEM/FBS): Modified Eagle's Medium (MEM) containing 1% glucose, 1 mM sodium pyruvate, 1 mM glutamine, and supplemented with 10% fetal bovine serum (JRH). After adding a final concentration of 0.05 mg/ml DNase the cells were resuspended and then pelleted by centrifugation and resuspended in MEM/FBS. 1.6×10^8 cells were seeded in a T-150 tissue culture flask coated with polyethyleneimine (PEI). (10% PEI (Sigma) was diluted 1:10 in H2 O, filtered through a […] unit and then diluted into 150 mM sodium borate pH 8.5 at 1:100. The flasks were coated overnight at room temperature, washed two times in PBS and coated with 20 ml/flask of MEM/FBS at 37° C. for at least one hour prior to plating cells.) Cultures were maintained in a H2 O-saturated incubator with an atmosphere of 95% air/5% CO2 at 37° C. The culture medium was changed one and four days after plating and the cultures were then left undisturbed for at least one week. After approximately two weeks in vitro, the flasks were gently shaken and floating microglia were collected and centrifuged for 5 minutes at 200×G in an IEC Clinical Centrifuge. The microglia were reseeded in 96 well tissue culture plates at a density of 5,000-40,000 cells/well in 125 μl in MEM/FBS. Astrocyte cultures were prepared by multiple passaging of the established mixed brain cell cultures. Each T-150 was incubated for 3-4 minutes at 37°C. with a trypsin/EDTA solution (see above). The trypsin was then inactivated by adding MEM/FBS. The cells were triturated and then pelleted by centrifugation and resuspended in MEM/FBS. The cells from one T-150 were seeded at a 1:30 to 1:5 dilution in T-150's not coated. Just prior to confluency the cells were repassaged by trypsinization as described above. This process was repeated until the cultures were >98% pure astrocytes.
(§2) Cultured microglial cells were treated with 50 μM of Aβ1-40 or vehicle only (Control). The levels of IL-1β, IL-6, and TNF-α released into the culture medium were determined by ELISA assay (R&D Systems) according to manufacturer's instructions.
(§3) The effect of two benzenesulfonamide inhibitors of PLA2 (European Patent Application 468 054) were examined on the activation of microglial cells by Aβ1-40 as in Example 1.
(§4) The effects of the benzenesulfonamide PLA2 inhibitor AN20606 and the selective cytosolic PLA2 inhibitor arachidonyl trifluoromethyl ketone (AN20579) were examined in cultured human cortical microglia for their selectivity for inhibiting microglia activation mediated by amyloid-βpeptide and lipopolysaccharides (LPS). LPS are a major constituent of the cell wall of gama-negative bacteria and are extensively used for generating inflammatory responses in cultured cells and in vivo.

[2] = test system: IL-1β release by cultured human cortical microglia; assay: IL-1 release from LPS-stimulated human cortical microglia; format: cell-based
Procedure: as §1, §4

[3] = test system: TNFα release by cultured human cortical microglia; assay: TNF release from LPS-stimulated human cortical microglia; format: cell-based
Procedure: as §1, §4

Ca^+2 -independent PLA2 = conditions: Ackermann et al. (1995); cited from earlier work
[4] = test system: IL-1β release by cultured human cortical microglia; assay: IL-1β release (ELISA) from Aβ1-40-stimulated human microglia; format: cell-based
Procedure: as §1, §2, §3, §4

human cortical neurons [5] = assay: Aβ neurotoxicity in human cortical neurons (alamarBlue), 2 h pretreatment with inhibitor; format: cell-based; conditions: for Emax: Homo sapiens, Cortical neurone, 72 h, read-out: Max Inh
Procedure: (§5) Cultures of human cortical or hippocampal neurons were prepared using a modification of the procedure described in P. Seubert et al. (1992), Nature 359:325-327. Cortical or hippocampal tissue was dissociated by incubation in a trypsin/EDTA solution (0.05% trypsin +0.53 mM EDTA in HBSS; Gibco) for 20 minutes at 37° C. The trypsin was then inactivated by resuspending the cells in serum-containing medium (MEM/FBS): Modified Eagle's Medium (MEM) containing 1% glucose, 1 mM sodium pyruvate, 1 mM glutamine, and supplemented with 10% fetal bovine serum (Gibco). Cells were then pelleted by centrifugation and resuspended in a chemically-defined medium (MEM/B27): MEM containing B27 supplement (Gibco) in place of FBS. Polyethyleneimine (PEI)-coated 6.4-mm (96-well) dishes were rinsed once with MEM/FBS, and then seeded at 0.75-1.25×10^5 cells per well in 0.1 ml MEM/B27. Cultures were maintained in a H2 O-saturated incubator with an atmosphere of 95% air/5% CO2 at 37° C. The culture medium was exchanged twice weekly.
(§6) Amyloid-β (Aβ) stock solutions were prepared as 1 mM stocks in sterile ddH2 O immediately prior to addition to cultures. Rat cortical neurons were exposed to Aβ by removing the culture medium and replacing it with DMEM/N2 or DMEM/B27 containing Aβ1-40. Human cortical neurons were exposed to Aβ by removing the culture medium and replacing it with MEM, MEM/N2, or MEM/B27 containing Aβ1-40. Cultures were maintained for 2-4 days before neuronal survival was quantified using alamarBlue™.
(§7) The alamarBlue™ assay incorporated a proprietary fluorometric/colorimetric metabolic indicator (Alamar Biosciences, Inc.). Viable cells convert alamarBlue™ from an oxidized (non-fluorescent, blue) form to a reduced (fluorescent, red) form. Assays were performed by replacing the culture media with a 10% alamarBlue™ solution in DMEM (rat cortical cultures) or MEM (human cortical cultures). Reduction of alamarBlue™ was determined spectrofluorometrically using a Millipore Cytofluor 2350 Scanner (excitation, […]; emission, 590 nm) and CytoCalc™ software (Millipore Corporation).
The effect of pretreating human cortical neuron cultures with the benzenesulfonamide PLA2 inhibitors and arachidonyl trifluoromethyl ketone prior to exposure to a neurotoxic concentration of Aβ1-40 was determined.
(§8) Human cortical neurons were treated with 50 μM Aβ1-40 and various inhibitors of PLA2. Compounds were added 2 hours prior to Aβ1-40 treatment at concentrations of 390 nM to 100 μM, and were then re-added at the time of Aβ1-40 treatment. Compounds were also added in an identical manner to neuronal cultures in the absence of Aβ1-40. Neuronal survival was determined after 3 days of treatment by alamarBlue®. IC50 is the dose of compound that inhibited Aβ-mediated neurotoxicity by 50%. […] Data represents the mean ± SD (n=3). ND, not detected at the concentration range used.

human cortical neurons [6] = assay: Aβ neurotoxicity / survival of human cortical neurons (alamarBlue), compound added at time of Aβ1-40; format: cell-based; conditions: for Max Inh: 50 μM Aβ1-40, compound 390 nM to 100 μM added at time of Aβ, 3 days, n=3
Procedure: as §5, §6, §7
The effect of the two benzenesulfonamide inhibitors of PLA2 in Example 2 were examined to determine the dose-dependence of their effect on neuronal survival in human cortical neuron cultures exposed to 0 μM, 25μM, or 50 μM of Aβ1-40 and varying doses of the benzenesulfonamide.
(§9) Human cortical neurons were treated with 50 μM Aβ1-40 and various inhibitors of PLA2 or PLC. Compounds were added at the time of Aβ1-40 treatment at concentrations 390 nM to 100 μM. Compounds were also added to neuronal cultures in the absence of Aβ1-40. Neuronal survival was determined after 3 days of treatment by alamarBlue®. IC50 is the dose of compound that inhibited Aβ-mediated neurotoxicity by 50%. […] Data represents the mean ± SD (n=3). ND, not detected at the concentration range used.

[7] = test system: PLC (phosphatidyl choline-phospholipase C); conditions: literature; cited from earlier work
[8] = Compound toxicity to human cortical neurons in absence of Aβ1-40 (alamarBlue, 3 days); format: cell-based; conditions: human, cortical neurons
Procedure: as §5, §7, §9

human cortical neurons [9] = assay: as above; format: cell-based
Procedure: as §5, §7, §9

[10] = Compound toxicity to human cortical neurons in absence of Aβ1-40, added as in pretreatment protocol; format: cell-based; conditions: human, cortical neurons, no Aβ1-40, 3 days, n=3, ND = not detected at the concentration range used, read-out: TD50 (concentration giving 50% loss of neuronal survival)
Procedure: as §5, §7, §8

human cortical neurons [11] = assay: as above; format: cell-based; conditions: no Aβ1-40, 3 days, n=3
Procedure: as §5, §7, §8

PLA2 = conditions: literature; cited from earlier work
AD patients = conditions: selected group of five AD patients; cited from earlier work
[12] = 50 μM Aβ1-40, inhibitor 20 μM where present
[13] = 10 ng/ml LPS, inhibitor 20 μM where present

For `CCCCC/C=C\C/C=C\C/C=C\C/C=C\CCCC(=O)C(F)(F)F` [AACOCF3, arachidonyl trifluoromethyl ketone], the “inhibition of cPLA2” value (cPLA2) is given as “capable of inhibiting”, the “TNF Released” value [1, 12] is given as 54.8 ± 9.4 pg/mL and the “Aβ1-40-mediated TNFα release, selectivity versus LPS (in words)” value ([1]; Aβ1-40 versus LPS stimulation) is given as “selectively inhibited”. The activity at 20 µM ([1]; Homo sapiens, Microglia, 50 μM Aβ1-40 + 20 μM inhibitor, read-out: TNF Released, percent in parentheses (relative to Aβ1-40 alone)) was 52%, the “IL-1 Released” value [2, 13] was 51 ± 6.4 pg/mL and the activity at 20 µM ([2]; Homo sapiens, Microglia, 10 ng/ml LPS + 20 μM inhibitor, read-out: IL-1 Released, percent in parentheses (relative to LPS alone)) was 225%. The “LPS-mediated cytokine release, IL-1 (in words)” value ([2]; LPS stimulation) was “actually enhanced”, the “TNF Released” value [3, 13] was 785 ± 50 pg/mL and the activity at 20 µM ([3]; Homo sapiens, Microglia, 10 ng/ml LPS + 20 μM inhibitor, read-out: TNF Released, percent in parentheses (relative to LPS alone)) was 161%. The “LPS-mediated cytokine release, TNF (in words)” value ([3]; LPS stimulation) was “actually enhanced”, the “inhibition of Ca^+2 -independent PLA2 activity” value (Ca^+2 -independent PLA2) was “capable of inhibiting” and the “IL-1 Released” value [4, 12] was 36 ± 7.2 pg/mL. The “Aβ1-40-mediated IL-1β release, selectivity versus LPS (in words)” value ([4]; Aβ1-40 versus LPS stimulation) was “selectively inhibited”, the activity at 20 µM ([4]; Homo sapiens, Microglia, 50 μM Aβ1-40 + 20 μM inhibitor, read-out: IL-1 Released, percent in parentheses (relative to Aβ1-40 alone)) was 13% and the “neuronal death resulting from Aβ1-40 exposure (in words)” value (human cortical neurons [5]; pretreatment two hours, three days, FIG. 6) was “substantially decreased neuronal death”.

For `S=C(S)OC1CC2CC1C1CCCC21` (stereo not shown) [AN20602, potassium 8(9)-tricyclo[5.2.1.0^2,6]decyl xanthate], the “Max Inh” value (human cortical neurons [6]) is given as 25%, the “enhancing neuronal survival after exposure to Aβ (in words)” value (human cortical neurons [6]; Example 5, FIG. 5, three days) is given as “relatively ineffective in enhancing neuronal survival” and the “inhibition of PLC” value [7] is given as “PLC inhibitor”. The CC50 at 72 h [8] was 35 µM and the “TD10 (concentration giving 10% loss of neuronal survival)” value (human cortical neurons [9]; human, 4320 min) was 13 µM.

With `CC1=C(CC/C(C)=C/CCC2=CC[C@H](C3=CC(=O)O[C@H]3O)O[C@H]2O)C(C)(C)CCC1` [Manoalide] the CC50 at 72 h [10] was 10 µM, the “TD10 (concentration giving 10% loss of neuronal survival)” value (human cortical neurons [11]) was 8 µM and the Emax (human cortical neurons [5]) was 49%.

For `COc1ccc2c(c1)CC[C@@H]1[C@@H]2CC[C@]2(C)[C@@H](NCCCCCCN3C(=O)C=CC3=O)CC[C@@H]12` [U73122, 1-[6-[[(17β)-3-methoxyestra-1,3,5(10)-trien-17-yl]amino]hexyl]-1H-pyrrole-2,5-dione], the “Max Inh” value (human cortical neurons [6]) is given as 66%, the IC50 (human cortical neurons [6]; Homo sapiens, Cortical neurone, 72 h, read-out: IC50 (dose that inhibited Aβ-mediated neurotoxicity by 50%)) is given as 9 µM and the “inhibition of PLC” value [7] is given as “inhibits both PLA2 and PLC”. The “inhibition of PLA2” value (PLA2) was “inhibits both PLA2 and PLC”, the CC50 at 72 h ([8]; no Aβ1-40, 3 days, 390 nM to 100 μM, n=3, ND = not detected at the concentration range used, read-out: TD50 (concentration giving 50% loss of neuronal survival)) was 16 µM and the “TD10 (concentration giving 10% loss of neuronal survival)” value (human cortical neurons [9]; no Aβ1-40, 3 days, 390 nM to 100 μM, n=3) was 11 µM.

For `COc1ccc2c(c1)c(CC(=O)O)c(C)n2C(=O)c1ccc(Cl)cc1` [indomethacin], the “effects on neuropathological progression” value (AD patients) is given as “no effects on neuropathological progression were noted” and the “reducing symptomatic progression in AD patients” value (AD patients) is given as “allegedly useful in reducing symptomatic progression”.

With `O=C(CBr)c1ccc(Br)cc1` [p-Bromophenacyl Bromide] the CC50 at 72 h [10] was 10 µM, the “TD10 (concentration giving 10% loss of neuronal survival)” value (human cortical neurons [11]) was 8 µM and the Emax (human cortical neurons [5]) was 39%.
